# Source: the supplement of paper PMC10307832
# Tests used:
# Experiment in all cases: relative viability (nuclei count vs DMSO), 5 days (fraction); higher = more cells survive
# CAP-232 + Trametinib = compound: C[C@H]([C@@H](C(=O)N)NC(=O)[C@@H]1CSSC[C@@H](C(=O)N[C@H](C(=O)N[C@@H](C(=O)N[C@H](C(=O)N1)CCCCN)CC2=CNC3=CC=CC=C32)CC4=CC=C(C=C4)O)NC(=O)[C@@H](CC5=CC=CC=C5)N)O [CAP-232] + CC(=O)Nc1cccc(-n2c(=O)n(C3CC3)c(=O)c3c(Nc4ccc(I)cc4F)n(C)c(=O)c(C)c32)c1 [Trametinib] (partner 0.02 µM)
# Procedure, shortened: (§1)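 Medians of duplicate plates are given as relative viability. That measure is the nuclei count in treated wells divided by the count in vehicle wells. Counts were taken on 4× images of lung cancer cell lines in 1536-well plates, 5 days after pin-tool dosing the day after seeding with one drug alone or a fixed anchor-drug dose plus five library-drug doses (not always all listed) in √10 steps.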
# CAP-232 + Luminespib = compound: C[C@H]([C@@H](C(=O)N)NC(=O)[C@@H]1CSSC[C@@H](C(=O)N[C@H](C(=O)N[C@@H](C(=O)N[C@H](C(=O)N1)CCCCN)CC2=CNC3=CC=CC=C32)CC4=CC=C(C=C4)O)NC(=O)[C@@H](CC5=CC=CC=C5)N)O [CAP-232] + CCNC(=O)c1noc(-c2cc(C(C)C)c(O)cc2O)c1-c1ccc(CN2CCOCC2)cc1 [Luminespib] (partner 0.01 µM)
# Procedure, shortened: as §1
# CAP-232 + OSI-027 = compound: C[C@H]([C@@H](C(=O)N)NC(=O)[C@@H]1CSSC[C@@H](C(=O)N[C@H](C(=O)N[C@@H](C(=O)N[C@H](C(=O)N1)CCCCN)CC2=CNC3=CC=CC=C32)CC4=CC=C(C=C4)O)NC(=O)[C@@H](CC5=CC=CC=C5)N)O [CAP-232] + COc1cccc2cc(-c3nc([C@H]4CC[C@H](C(=O)O)CC4)n4ncnc(N)c34)[nH]c12 [OSI-027] (partner 0.5 µM)
# Procedure, shortened: as §1
# CAP-232 + AZD7762 = compound: C[C@H]([C@@H](C(=O)N)NC(=O)[C@@H]1CSSC[C@@H](C(=O)N[C@H](C(=O)N[C@@H](C(=O)N[C@H](C(=O)N1)CCCCN)CC2=CNC3=CC=CC=C32)CC4=CC=C(C=C4)O)NC(=O)[C@@H](CC5=CC=CC=C5)N)O [CAP-232] + NC(=O)Nc1cc(-c2cccc(F)c2)sc1C(=O)N[C@H]1CCCNC1 [AZD7762] (partner 0.2 µM)
# Procedure, shortened: as §1
# CAP-232 + Vorinostat = compound: C[C@H]([C@@H](C(=O)N)NC(=O)[C@@H]1CSSC[C@@H](C(=O)N[C@H](C(=O)N[C@@H](C(=O)N[C@H](C(=O)N1)CCCCN)CC2=CNC3=CC=CC=C32)CC4=CC=C(C=C4)O)NC(=O)[C@@H](CC5=CC=CC=C5)N)O [CAP-232] + O=C(CCCCCCC(=O)Nc1ccccc1)NO [Vorinostat] (partner 1 µM)
# Procedure, shortened: as §1
Cell Line,relative viability (CAP-232 + Trametinib; first compound 0.4 µM),relative viability (CAP-232 + Trametinib; first compound 1.265 µM),relative viability (CAP-232 + Trametinib; first compound 4 µM),relative viability (CAP-232 + Trametinib; first compound 12.65 µM),relative viability (CAP-232 + Luminespib; first compound 0.4 µM),relative viability (CAP-232 + Luminespib; first compound 1.265 µM),relative viability (CAP-232 + Luminespib; first compound 4 µM),relative viability (CAP-232 + Luminespib; first compound 12.65 µM),relative viability (CAP-232 + OSI-027; first compound 0.4 µM),relative viability (CAP-232 + OSI-027; first compound 1.265 µM),relative viability (CAP-232 + OSI-027; first compound 4 µM),relative viability (CAP-232 + OSI-027; first compound 12.65 µM),relative viability (CAP-232 + AZD7762; first compound 0.4 µM),relative viability (CAP-232 + AZD7762; first compound 1.265 µM),relative viability (CAP-232 + AZD7762; first compound 4 µM),relative viability (CAP-232 + AZD7762; first compound 12.65 µM),relative viability (CAP-232 + Vorinostat; first compound 0.4 µM),relative viability (CAP-232 + Vorinostat; first compound 1.265 µM),relative viability (CAP-232 + Vorinostat; first compound 4 µM),relative viability (CAP-232 + Vorinostat; first compound 12.65 µM)
HOP-62,0.333,0.348,0.382,0.423,0.957,0.917,1.13,0.908,1.03,0.745,0.756,0.781,0.883,0.482,0.981,0.607,0.589,0.484,0.676,0.543
LC-2-ad,0.967,0.925,0.936,0.884,1.03,1.07,0.965,0.561,0.954,0.852,0.756,0.559,0.917,0.815,0.919,0.688,0.734,0.753,0.723,0.698
LCLC-97TM1,0.143,0.184,0.154,0.188,0.799,0.819,0.804,0.799,0.437,0.523,0.601,0.486,0.442,0.238,0.341,0.429,0.876,0.764,1.08,0.995
LCLC-103H,0.662,0.666,0.723,0.703,1.04,0.989,0.902,1.07,0.481,0.375,0.496,0.464,0.89,0.792,0.891,0.747,0.875,0.729,0.827,0.825
LK-2,0.438,0.687,0.711,0.563,0.176,0.207,0.19,0.183,0.197,0.18,0.231,0.175,0.357,0.274,0.322,0.376,0.277,0.249,0.275,0.298
LOU-NH91,0.834,0.811,0.783,0.445,0.335,0.271,0.341,0.326,0.756,0.775,0.72,0.675,0.857,0.758,0.799,0.287,1.02,0.882,0.931,0.415
LU99A,0.283,0.634,0.553,0.444,0.333,0.267,0.182,0.246,0.263,0.267,0.276,0.313,0.422,0.359,0.269,0.335,0.533,0.492,0.589,0.533
LXF-289,0.657,0.687,0.657,0.713,0.787,0.642,0.581,0.775,0.824,0.721,0.805,0.741,1.19,1.16,1.15,1.27,0.89,0.785,0.772,0.774
NCI-H23,0.339,0.435,0.439,0.28,0.218,0.196,0.197,0.119,0.64,0.529,0.687,0.487,0.286,0.236,0.239,0.22,0.578,0.534,0.558,0.54
NCI-H322M,0.46,0.514,0.497,0.539,0.686,0.832,0.809,0.565,0.569,0.528,0.52,0.437,0.827,0.645,0.528,0.556,0.91,0.894,0.932,1.11
NCI-H358,0.111,0.138,0.13,0.098,0.241,0.289,0.376,0.352,0.665,0.864,0.71,0.664,0.466,0.406,0.376,0.318,0.755,0.709,0.71,0.375
NCI-H441,0.431,0.41,0.479,0.501,0.388,0.329,0.382,0.382,0.527,0.683,0.602,0.686,1.03,1.16,1.22,0.922,0.879,0.824,0.936,0.77
NCI-H460,0.134,0.208,0.165,0.0175,0.0294,0.0314,0.0247,0.0208,0.767,0.739,0.825,0.275,0.856,0.58,0.734,0.416,1.01,0.865,1.1,0.363
NCI-H522,0.772,0.856,0.607,0.726,1.08,1.11,1.15,1.3,0.72,0.702,0.806,0.696,0.876,1.08,0.926,1.04,0.971,0.9,0.93,0.867
NCI-H596,0.901,0.675,0.851,0.765,1.03,1.03,0.988,0.901,0.767,0.726,0.884,0.633,1.1,1.13,1.05,1.09,0.666,0.613,0.582,0.53
NCI-H647,0.321,0.504,0.564,0.249,0.12,0.114,0.211,0.203,0.576,0.775,0.739,0.577,0.767,0.33,0.696,0.282,0.541,0.593,0.602,0.414
NCI-H650,0.821,1.04,0.896,1.01,0.735,0.824,0.674,0.721,0.619,0.506,0.602,0.543,1.29,1.03,1.02,0.951,0.505,0.423,0.364,0.457
NCI-H727,0.383,0.397,0.442,0.415,0.474,0.318,0.348,0.386,0.593,0.515,0.795,0.421,0.572,0.586,0.612,0.617,1.19,1.08,1.39,1.23
NCI-H838,0.59,0.555,0.626,0.39,0.321,0.266,0.349,0.246,0.342,0.434,0.461,0.314,1.05,0.995,0.989,0.823,0.727,0.756,0.754,0.736
NCI-H1355,0.437,0.434,0.456,0.342,0.81,0.808,0.578,0.683,0.41,0.449,0.331,0.403,0.794,0.82,0.872,0.706,0.612,0.624,0.74,0.611
NCI-H1395,1.17,–,1.06,1.1,0.661,0.638,0.665,0.614,0.647,0.532,0.67,0.707,0.511,–,0.423,0.224,1.11,–,0.79,0.573
NCI-H1437,0.445,0.515,0.617,0.458,1.17,1.13,1.24,0.812,0.94,0.793,0.917,0.698,1.15,1.11,1.09,1.05,0.921,0.877,0.86,0.828
NCI-H1651,0.902,0.803,0.836,0.784,1.12,0.95,0.867,0.506,0.721,0.703,0.89,0.522,0.487,0.429,0.553,0.481,0.632,0.55,0.577,0.551
NCI-H1666,0.699,0.859,0.924,0.734,1.03,1.04,0.982,0.963,0.973,0.809,0.907,0.769,0.918,0.882,0.859,0.908,1.09,1.06,1.19,0.856
NCI-H1734,0.506,0.656,0.645,0.504,0.194,0.214,0.163,0.206,0.558,0.59,0.56,0.406,0.637,0.578,0.527,0.426,0.878,0.755,0.803,0.708
NCI-H1755,0.765,0.724,0.792,0.771,0.419,0.612,0.329,0.383,0.699,0.713,0.754,0.653,0.453,0.396,0.536,0.403,0.698,0.635,0.755,0.73
NCI-H1793,0.342,0.396,0.356,0.493,0.199,0.195,0.451,0.165,0.282,0.253,0.196,0.25,0.437,0.618,0.518,0.524,0.947,0.703,0.728,0.653
NCI-H1915,0.207,0.307,0.291,0.371,0.946,0.798,0.806,0.736,0.566,0.601,0.672,0.325,0.771,0.685,0.704,0.762,0.697,0.511,0.516,0.506
